{
  "source": "paper PMC12406256",
  "about": "“Food Additives Inhibit Intestinal Drug Transporters but Have Limited Effect on In Vitro Drug Permeability” (Molecular Pharmaceutics, 2025)",
  "key": {"[1]": {"tested_on": "Caco-2 cells", "design": "method as in not given", "conditions": "micellar formulation, ref not given; cited from earlier work"}, "[2]": {"molecular_target": "T1, P-gp (Homo sapiens, UniProt P08183)", "T1 sequence (P08183 whole entry)": "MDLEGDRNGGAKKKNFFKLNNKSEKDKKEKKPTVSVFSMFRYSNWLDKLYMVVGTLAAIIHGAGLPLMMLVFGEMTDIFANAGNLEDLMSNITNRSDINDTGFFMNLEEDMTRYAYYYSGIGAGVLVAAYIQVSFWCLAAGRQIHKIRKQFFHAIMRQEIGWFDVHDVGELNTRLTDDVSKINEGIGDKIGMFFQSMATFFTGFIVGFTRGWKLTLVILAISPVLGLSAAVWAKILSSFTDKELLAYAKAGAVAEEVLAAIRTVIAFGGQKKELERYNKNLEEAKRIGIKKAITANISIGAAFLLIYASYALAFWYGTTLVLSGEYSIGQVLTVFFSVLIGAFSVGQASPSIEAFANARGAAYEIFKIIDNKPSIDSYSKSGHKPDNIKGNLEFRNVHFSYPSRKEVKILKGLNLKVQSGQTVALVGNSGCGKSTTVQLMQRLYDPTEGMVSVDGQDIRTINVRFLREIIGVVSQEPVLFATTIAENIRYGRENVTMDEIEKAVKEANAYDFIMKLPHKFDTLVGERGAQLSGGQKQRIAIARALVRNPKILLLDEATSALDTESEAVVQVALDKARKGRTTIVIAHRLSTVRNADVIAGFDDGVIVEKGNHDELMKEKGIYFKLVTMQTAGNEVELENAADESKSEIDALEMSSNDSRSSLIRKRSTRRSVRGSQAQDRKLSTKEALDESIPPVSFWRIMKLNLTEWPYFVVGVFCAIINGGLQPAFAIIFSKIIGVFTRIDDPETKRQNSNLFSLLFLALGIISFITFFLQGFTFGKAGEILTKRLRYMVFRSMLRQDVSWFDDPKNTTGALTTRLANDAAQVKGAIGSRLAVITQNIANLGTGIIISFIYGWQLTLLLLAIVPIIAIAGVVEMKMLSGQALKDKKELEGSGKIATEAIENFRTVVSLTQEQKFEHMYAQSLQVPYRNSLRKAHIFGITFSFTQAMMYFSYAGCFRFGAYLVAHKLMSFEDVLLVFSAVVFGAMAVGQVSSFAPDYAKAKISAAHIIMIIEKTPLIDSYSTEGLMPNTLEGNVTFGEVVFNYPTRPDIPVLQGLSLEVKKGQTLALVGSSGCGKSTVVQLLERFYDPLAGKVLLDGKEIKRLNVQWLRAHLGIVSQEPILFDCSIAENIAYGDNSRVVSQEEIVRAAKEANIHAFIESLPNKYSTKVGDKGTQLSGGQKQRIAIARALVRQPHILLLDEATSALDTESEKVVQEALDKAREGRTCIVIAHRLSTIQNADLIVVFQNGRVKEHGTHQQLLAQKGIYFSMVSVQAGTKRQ", "test": "Vesicular transport assay, P-gp (N-methyl-quinidine substrate)"}, "[3]": {"molecular_target": "T2, BCRP (Homo sapiens, UniProt Q9UNQ0)", "T2 sequence (Q9UNQ0 1-655)": "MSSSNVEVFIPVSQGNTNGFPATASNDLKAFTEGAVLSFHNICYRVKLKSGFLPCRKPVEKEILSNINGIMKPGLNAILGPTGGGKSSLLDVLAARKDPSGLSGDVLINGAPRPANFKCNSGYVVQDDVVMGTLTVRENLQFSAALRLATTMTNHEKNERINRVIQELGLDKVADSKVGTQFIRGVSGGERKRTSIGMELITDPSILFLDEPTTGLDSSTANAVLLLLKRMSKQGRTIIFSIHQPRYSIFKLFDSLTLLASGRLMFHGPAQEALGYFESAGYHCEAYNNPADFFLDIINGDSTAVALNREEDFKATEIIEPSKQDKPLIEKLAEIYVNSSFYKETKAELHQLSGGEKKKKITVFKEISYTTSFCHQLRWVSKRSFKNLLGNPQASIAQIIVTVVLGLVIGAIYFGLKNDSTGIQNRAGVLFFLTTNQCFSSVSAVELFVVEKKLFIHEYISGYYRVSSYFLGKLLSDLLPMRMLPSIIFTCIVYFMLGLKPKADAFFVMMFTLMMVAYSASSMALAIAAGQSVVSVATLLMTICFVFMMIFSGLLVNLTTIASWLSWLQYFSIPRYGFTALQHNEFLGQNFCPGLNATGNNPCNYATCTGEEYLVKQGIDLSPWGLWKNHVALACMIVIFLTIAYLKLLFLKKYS", "conditions": "cited from earlier work"}, "[4]": {"tested_on": "Caco-2 cells", "test": "in vitro", "conditions": "Caco-2"}, "[5]": {"molecular_target": "T1, P-gp", "design": "made in house; host or cells: Spodoptera frugiperda Sf9 cells, crude membrane vesicles", "conditions": "Caco-2 cells; ref previous studies; cited from earlier work"}, "[6]": {"molecular_target": "T3, MRP2 (Homo sapiens, UniProt Q92887)", "T3 construct": "made in house; host or cells: Spodoptera frugiperda Sf9 cells, crude membrane vesicles", "T3 sequence (Q92887 whole entry)": "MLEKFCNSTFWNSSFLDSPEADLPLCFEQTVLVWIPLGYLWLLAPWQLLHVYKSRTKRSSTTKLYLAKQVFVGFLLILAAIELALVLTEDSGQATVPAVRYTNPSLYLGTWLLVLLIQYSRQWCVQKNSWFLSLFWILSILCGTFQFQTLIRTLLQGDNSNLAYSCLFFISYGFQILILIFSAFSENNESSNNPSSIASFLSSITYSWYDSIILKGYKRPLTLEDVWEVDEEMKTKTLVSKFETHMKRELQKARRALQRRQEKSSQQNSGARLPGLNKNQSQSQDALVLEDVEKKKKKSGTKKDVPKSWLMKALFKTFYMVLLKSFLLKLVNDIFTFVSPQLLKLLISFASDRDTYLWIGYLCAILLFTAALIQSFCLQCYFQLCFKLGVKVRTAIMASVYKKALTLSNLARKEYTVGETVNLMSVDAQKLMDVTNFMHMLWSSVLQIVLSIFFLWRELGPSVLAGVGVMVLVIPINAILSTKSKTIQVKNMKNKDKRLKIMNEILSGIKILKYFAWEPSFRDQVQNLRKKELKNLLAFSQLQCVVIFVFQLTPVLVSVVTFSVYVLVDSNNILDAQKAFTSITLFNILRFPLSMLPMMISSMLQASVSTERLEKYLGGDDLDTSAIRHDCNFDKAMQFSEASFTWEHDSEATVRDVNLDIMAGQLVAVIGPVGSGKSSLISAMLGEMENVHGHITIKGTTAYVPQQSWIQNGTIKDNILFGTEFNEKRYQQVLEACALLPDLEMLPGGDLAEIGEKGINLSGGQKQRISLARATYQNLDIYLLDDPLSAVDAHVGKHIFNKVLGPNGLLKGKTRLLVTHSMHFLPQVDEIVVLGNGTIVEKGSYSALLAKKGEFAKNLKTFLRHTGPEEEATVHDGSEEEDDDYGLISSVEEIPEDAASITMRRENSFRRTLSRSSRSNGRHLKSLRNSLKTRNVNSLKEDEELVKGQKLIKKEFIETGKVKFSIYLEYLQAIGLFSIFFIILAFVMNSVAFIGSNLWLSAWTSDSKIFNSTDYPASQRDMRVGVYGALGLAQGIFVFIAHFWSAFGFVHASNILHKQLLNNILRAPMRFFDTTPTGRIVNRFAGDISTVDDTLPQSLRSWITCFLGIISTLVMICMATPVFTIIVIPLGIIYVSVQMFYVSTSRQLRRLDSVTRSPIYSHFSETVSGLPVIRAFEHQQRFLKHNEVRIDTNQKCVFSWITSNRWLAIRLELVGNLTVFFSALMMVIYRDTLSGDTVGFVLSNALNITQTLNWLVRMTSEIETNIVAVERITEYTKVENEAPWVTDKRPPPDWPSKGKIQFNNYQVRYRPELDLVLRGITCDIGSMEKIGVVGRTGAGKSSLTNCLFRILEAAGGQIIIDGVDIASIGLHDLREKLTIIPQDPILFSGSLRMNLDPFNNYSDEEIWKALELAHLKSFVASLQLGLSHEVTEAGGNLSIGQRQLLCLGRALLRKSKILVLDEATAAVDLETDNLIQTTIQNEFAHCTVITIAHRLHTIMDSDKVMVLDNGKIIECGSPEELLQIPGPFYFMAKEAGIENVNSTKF", "test": "Vesicular transport assay, MRP2 (CDCF substrate)", "assay_type": "biochemical", "conditions": "food additive 50 μM; CDCF 5 μM; n = 1"}},
  "data": [
    {"smiles": "CC1=C(/C=C/C(C)=C/C=C/C(C)=C/C=C/C=C(C)/C=C/C=C(C)/C=C/C2=C(C)CCCC2(C)C)C(C)(C)CCC1", "note": "[beta-carotene]", "values": [
      {"measurement": "applied dose recovered in the basolateral chamber", "setting": "[1]", "value": "≤ 35", "unit": "%"},
      {"measurement": "IC50", "setting": "[2]", "value": 3.2, "unit": "µM"},
      {"measurement": "inhibition at 50 μM", "setting": "[2]; Sf9-derived crude membrane vesicles expressing P-gp, pH 7, probe N-methyl-quinidine 2 μM", "value": "≥ 50", "unit": "%"},
      {"measurement": "BCRP inhibition potency", "setting": "[3]", "value": "weak inhibition potency"},
      {"measurement": "effect on sulfasalazine permeability (P app)", "setting": "[4]", "value": "None of the selected food additives showed any effect"},
      {"measurement": "P-gp inhibition in Caco-2 cells", "setting": "[5]", "value": "inhibitor of P-gp"},
      {"measurement": "inhibition of MRP2 substrate accumulation", "setting": "[6]", "value": "did not inhibit"}
    ]}
  ]
}
